Experimental data: patent US20220347256A1, “COMPOSITION FOR PROMOTING HAIR GROWTH, AND ALLEVIATING AND TREATING HAIR LOSS INCLUDING SUBSTANCE P” (Biosolution Co., Ltd., priority 2019, published 2022)
Where no end group is shown, it is not given here.

Columns and labels:
C3H/HeN mice [1] = assay: Maintenance of skin in growth phase in C3H mice with dexamethasone-induced regression phase (black skin area); assay type: in vivo
Method: More specifically, ketamine (Yuhan Co, Ltd, Korea) and rompun (Bayer Korea, Korea) were mixed to a final concentration of 24.2 mg/mL and 1.8 mg/mL, respectively, and then six-week-old female C3H/HeN mice (Orient Bio, Korea) were anesthetized with 80 μL of the anesthetic solution. After anesthesia, the hair on the back was removed using a clipper, and the remaining hair was completely removed using a hair removal cream. Then, twelve mice with clean skin without wounds or remaining hair at the hair removal site were selected. Three mice were placed in each group so that mice with similar hair cycle were placed in each group, and thereafter the experiment was carried out. The phosphate buffered saline or the composition including the substance P at 50% concentration was intradermally injected in an amount of 50 μL each for a total of 200 μL at four sites on the back of the mice, at intervals of 3 to 4 days for 7 days from 6 days after the hair removal using an insulin syringe. […] One-way ANOVA was carried out to examine the difference between the entire groups, and the difference between individual means was analyzed using Tukey's test. […] This statistic was analyzed based on Prism software version 5. […]

C3H/HeN mice [2] = assay: H&E histology, thickness and shape of skin in C3H mice with dexamethasone-induced regression phase; assay type: in vivo; settings: in combination with dexamethasone
Method: More specifically, after the procedure of Example 7, the skin tissue of the mice was collected in the direction of the hair follicles and fixed in a fixing solution (4% formaldehyde, Sigma, USA) for 24 hours. […] Thereafter, an infiltration process was carried out to fill the penetrant into the tissue, followed by an embedding process to make a paraffin block. For hematoxylin (Sigma, USA) and eosin (Sigma, USA) staining, the paraffin block was cut into 8 μm and attached to slides (microscope slides, Marienfeld, Germany) coated with 2% 3-aminosilane, followed by drying in a 37° C. slide warmer for 12 hours. Thereafter, the slides were immersed in xylene four times for 7 minutes each through a deparaffinization process, and subjected to hydration for staining, and then washed with water. […] One-way ANOVA was carried out to examine the difference between the entire groups, and the difference between individual means was analyzed using Tukey's test. […] This statistic was analyzed based on Prism software version 5.
Additionally, the thickness of the dermis and the subcutaneous layers was confirmed by the Image J program. Skin thickness was measured by dividing the skin into the dermal layer (D), subcutaneous layer (SC), and whole layer (W), and 30 different areas were measured for each group and the results are shown in the graph of FIG. 13.

C3H/HeN mice [3] = assay: Number of hair follicles in skin of C3H mice with dexamethasone-induced regression phase; assay type: in vivo; settings: in combination with dexamethasone
Method: More specifically, after the procedure of Example 7, the skin tissue of the mice was collected in the direction vertical to the hair follicles and fixed in a fixing solution (4% formaldehyde, Sigma, USA) for 24 hours. The hematoxylin and eosin staining was carried out in the same manner as in Example 8.
Additionally, the number of hair follicles in 1 mm of skin was measured for each group by the Image J program. The number of hair follicles were measured in 10 tissues per group by dividing the skin into D, SC, and W layers, and the results are shown in the graph of FIG. 15.

dermal papilla cells = assay: MTT assay of dermal papilla cell proliferation; assay type: cell-based; settings: 24 hours, concentration groups 30% and 50%
Method: The effect of substance P on dermal papilla cell proliferation was analyzed by MTT assay.
More specifically, 1,000 μL of 0.5×10^5 CFU/mL dermal papilla cell suspension was added to a 12-well culture plate and incubated for 48 hours. The medium (alpha-Minimum Essential Medium, alpha-MEM+10% FBS) was removed, and then 900 μL of a fresh medium (alpha-Minimum Essential Medium, alpha-MEM +5% FBS) was dispensed into each well, and then 100 μL of the composition including substance P diluted with phosphate buffered saline (PBS) was inoculated at concentrations of 30% and 50% (the substance P was contained at a concentration of 6 mg/mL and 10 mg/mL in the composition with concentrations of 30% and 50%, respectively). Additionally, substance P (30% and 50%) at the same concentrations as the composition including substance P was respectively mixed with phosphate buffered saline and treated.
Meanwhile, 100 μL of phosphate buffered saline was used as a negative control group. After inoculation, cells were incubated at 37° C. for 24 hours, and then the medium was removed. Then, the cells were washed with phosphate buffered saline three times. […] Finally, the cells were washed with phosphate buffered saline and stirred in 150 μL of isopropyl alcohol solution for 3 hours, and absorbance at 570 nm was measured.

germinal matrix cells = assay: MTT assay of germinal matrix cell proliferation; assay type: cell-based; settings: 24 hours, concentration groups 30% and 50%
Method: The effect of substance P on germinal matrix cell proliferation was analyzed by MTT assay.
More specifically, 1,000 μL of 0.5×10^5 CFU/mL germinal matrix cell suspension was added to a 12-well culture plate and incubated for 48 hours. The medium (alpha-Minimum Essential Medium, alpha-MEM+10% FBS+10 ng/ml bFGF) was removed, and then 900 μL of a fresh medium (alpha-Minimum Essential Medium, alpha-MEM+5% FBS+5 ng/ml bFGF) was dispensed into each well, and then 100 μL of the composition including substance P diluted with phosphate buffered saline (PBS) was inoculated at concentrations of 30% and 50%. Additionally, substance P (30% and 50%) at the same concentration as the composition including substance P was respectively mixed with phosphate buffered saline and treated. Meanwhile, 100 μL of phosphate buffered saline was used as a negative control group. After inoculation, cells were incubated at 37° C. for 24 hours, and then the medium was removed. Then, the cells were washed with the phosphate buffered saline three times. Subsequently, 900 μL of the medium was mixed with 100 μL of the MTT solution (0.5 mg/mL), and the mixed solution was treated to each well and allowed to react at 37° C. for 3 hours. Finally, the cells were washed with the phosphate buffered saline and stirred in 150 μL of isopropyl alcohol solution for 3 hours, and absorbance at 570 nm was measured.

| Compound | inhibition of the induction of the regression phase by dexamethasone (C3H/HeN mice [1]; from black skin area) | black-skinned back relative to the total skin (C3H/HeN mice [1]; in combination with dexamethasone, 17 days after hair removal, Image J) | inhibition of the regression phase of the subcutaneous layer (SC) compared to phosphate buffered saline (C3H/HeN mice [2]) | number of hair follicles maintained in the dermis compared to phosphate buffered saline (C3H/HeN mice [3]) | number of hair follicles maintained in the subcutaneous compared to phosphate buffered saline (C3H/HeN mice [3]) | number of hair follicles maintained in the whole skin compared to phosphate buffered saline (C3H/HeN mice [3]) | cell proliferation of dermal papilla cells (dermal papilla cells) | cell proliferation of germinal matrix cells (germinal matrix cells) |
| --- | --- | --- | --- | --- | --- | --- | --- | --- |
| Nc1cc(N2CCCCC2)nc(N)[n+]1[O-] [minoxidil 2%, minoxidil] | 46% | 47% | 233% | about 1.4 times | about 56 times | about 3.7 times |  |  |
| Arg-Pro-Lys-Pro-Gln-Gln-Phe-Phe-Gly-Leu-Met-NH2 (RPKPQQFFGLM-NH2) [substance P, in phosphate buffered saline as comparison group] |  |  |  |  |  |  | 107% | ≤ 105% |
